The record followed here is ChEMBL document CHEMBL1135341, “Analogue based design of MMP-13 (Collagenase-3) inhibitors” (Bioorg Med Chem Lett, 2002).

This assay addresses Collagenase 3 (Homo sapiens, UniProt P45452). The assay can be described thus: Inhibitory activity against recombinant human matrix metalloprotease-13.

On to `COCCOCCC#CCC(NS(=O)(=O)c1ccc(-c2ccc(OC)cc2)cc1)C(=O)O` (configuration not stated), for which the concentration for half-maximal inhibition (IC50) is 87.1 nM.

For the compound `O=C(O)C(CC#Cc1ccccc1)NS(=O)(=O)c1ccc(C#Cc2ccccc2)cc1` (configuration not stated), the half-inhibitory concentration (IC50) was 89.1 nM.
